Results from ChEMBL document CHEMBL3792319, “Synthesis and antitubercular activity of 1,2,4-trisubstitued piperazines” (Bioorg Med Chem Lett, 2016).
Converted amounts (≈) assume the structure as drawn.

How the values were obtained:
[1] = tested on: Mycobacterium tuberculosis; assay: Antitubercular activity against Mycobacterium tuberculosis H37Rv measured after 7 days under aerobic condition; format: functional, organism-based; conditions: 168 h
[2] = tested on: Mycobacterium tuberculosis; assay: Antitubercular activity against Mycobacterium tuberculosis H37Rv measured after 5 days under aerobic condition by two-fold serial dilution method; format: functional; conditions: 120 h
[3] = tested on: Mycobacterium tuberculosis; assay: Antimicrobial activity against Mycobacterium tuberculosis H37Rv expressing bacterial luciferase measured after 10 days under hypoxia condition by LORA assay; format: functional; conditions: 240 h
[4] = tested on: Mycobacterium tuberculosis; assay: Bactericidal activity against Mycobacterium tuberculosis H37Rv measured upto 21 days; format: functional; conditions: 504 h
[5] = tested on: Mycobacterium tuberculosis; assay: Antitubercular activity against Mycobacterium tuberculosis H37Rv expressing bacterial luciferase infected murine J774 macrophage cells assessed as reduction in cell count at 200 uM measured after 4 days by luminescence analysis; format: functional
[6] = tested on: Mycobacterium tuberculosis; assay: Antitubercular activity against Mycobacterium tuberculosis H37Rv expressing bacterial luciferase infected murine J774 macrophage cells assessed as reduction in cell count at 20 uM measured after 4 days by luminescence analysis; format: functional

| Compound | IC90 [1] [µM] | MIC [1] [µM] | IC50 [1] [µM] | MIC [2] [µM] | MIC [3] [µM] | MBC [4] [µM] | Activity [5] [log10CFU] | Activity [6] [log10CFU] |
| --- | --- | --- | --- | --- | --- | --- | --- | --- |
| CNC[C@@H](Cc1ccccc1)N1CCN(CCC23CC4CC(CC(C4)C2)C3)[C@H](CO)C1 | 75.6 | > 100 | – | – | – | – | – | – |
| CCCC[C@H](CNC)N1CCN(CCC23CC4CC(CC(C4)C2)C3)[C@H](C(C)C)C1 | 65.5 | 100 (≈ 40.4 µg/mL) | 47.5 | – | – | – | – | – |
| CCC(C)[C@@H]1CN([C@@H](CNC)Cc2ccccc2)CCN1CCC12CC3CC(CC(C3)C1)C2 (stereo partly drawn) | 38 | 37.7 (≈ 17 µg/mL) | 17 | 41 (≈ 18.5 µg/mL) | 9.8 (≈ 4.43 µg/mL) | 5 (≈ 2.26 µg/mL) | 2.4 | 2.4 |
| CC[C@H](C)[C@@H]1CN([C@@H](CNC)Cc2ccccc2)CCN1CC(C)(C)C | > 200 | > 200 | 190 | – | – | – | – | – |
| CNC[C@H](Cc1ccccc1)N1CCN(CCc2c[nH]c3ccccc23)[C@H](C(C)C)C1 | 88.1 | > 100 | – | – | – | – | – | – |
| CCC(C)[C@H](CNC)N1CCN(CCC23CC4CC(CC(C4)C2)C3)[C@H](C(C)C)C1 (stereo partly drawn) | 99.5 | 100 (≈ 40.4 µg/mL) | 37.4 | – | – | – | – | – |
| CCC(C)[C@@H](CNC)N1CCN(CCc2ccc(C)cc2)CC1 (stereo partly drawn) | 110 | 93.9 (≈ 29.8 µg/mL) | 37 | – | – | – | – | – |
| CCCC[C@H](CNC)N1CCN(CCC23CC4CC(CC(C4)C2)C3)[C@H](C(C)CC)C1 (stereo partly drawn) | 33.7 | 50 (≈ 20.9 µg/mL) | 21.2 | – | – | – | – | – |
| CCC(C)[C@H](CNC)N1CCN(CCC23CC4CC(CC(C4)C2)C3)[C@H](CO)C1 (stereo partly drawn) | > 100 | > 100 | – | – | – | – | – | – |
| CNC[C@@H](CO)N1CCN(CCc2ccc(C)cc2)[C@H](CC2CCCCC2)C1 | 160 | 200 (≈ 77.5 µg/mL) | 67 | – | – | – | – | – |
| CCCC[C@@H](CNC)N1CCN(CCc2c[nH]c3ccccc23)[C@H](C(C)C)C1 | 85.3 | > 100 | – | – | – | – | – | – |
| CNC[C@@H](Cc1ccccc1)N1CCN(CCC23CC4CC(CC(C4)C2)C3)[C@H](C(C)C)C1 | 37 | 50 (≈ 21.9 µg/mL) | 20.7 | 14 (≈ 6.13 µg/mL) | 52.2 (≈ 22.8 µg/mL) | 114 (≈ 49.9 µg/mL) | – | 2.22 |
| CNC[C@@H](CC(C)C)N1CCN(CCc2ccc(C)cc2)CC1 | > 200 | > 200 | > 200 | – | – | – | – | – |
| CNC[C@@H](Cc1ccccc1)N1CCN(CC2CCC(C)CC2)[C@H](C(C)C)C1 (stereo partly drawn) | 85.5 | > 100 | – | – | – | – | – | – |
| CNC[C@H](Cc1ccccc1)N1CCN(CCC23CC4CC(CC(C4)C2)C3)[C@H](CO)C1 | 66.1 | 100 (≈ 42.6 µg/mL) | 54.6 | – | – | – | – | – |
| CCCC[C@@H](CNC)N1CCN(CCC23CC4CC(CC(C4)C2)C3)[C@H](C(C)CC)C1 (stereo partly drawn) | 54.2 | 100 (≈ 41.8 µg/mL) | 29.6 | – | – | – | – | – |
| CNC[C@@H](Cc1ccccc1)N1CCN(CCC(c2ccccc2)c2ccccc2)CC1 | > 61 | 52.3 (≈ 22.4 µg/mL) | 23 | 69 (≈ 29.5 µg/mL) | > 200 | 20 (≈ 8.55 µg/mL) | 2.4 | 2.4 |
| CCCC[C@@H](CNC)N1CCN(CCC23CC4CC(CC(C4)C2)C3)[C@H](C(C)C)C1 | 61.4 | 100 (≈ 40.4 µg/mL) | 51.8 | – | – | – | – | – |
| CNCCN1CCN(CCC23CC4CC(CC(C4)C2)C3)[C@H](C(C)C)C1 | > 100 | > 100 | – | – | – | – | – | – |
| CCC(C)[C@@H]1CN([C@H](CNC)Cc2ccccc2)CCN1CCC12CC3CC(CC(C3)C1)C2 (stereo partly drawn) | 35.5 | 50 (≈ 22.6 µg/mL) | 20.2 | – | – | – | – | – |
| CCC(C)[C@H](CNC)N1CCN(CCc2c[nH]c3ccccc23)[C@H](C(C)C)C1 (stereo partly drawn) | > 100 | > 100 | – | – | – | – | – | – |
| CNC[C@@H](CO)N1CCN(CCC(c2ccccc2)c2ccccc2)[C@H](CC2CCCCC2)C1 | 50 | 48.4 (≈ 22.4 µg/mL) | 22 | – | – | – | – | – |
| CCCC[C@@H](CNC)N1CCN(CCC23CC4CC(CC(C4)C2)C3)[C@H](CO)C1 | 70.6 | > 100 | – | – | – | – | – | – |
| CNC[C@@H](Cc1ccccc1)N1CCN(CCC23CC4CC(CC(C4)C2)C3)CC1 | 99 | 61.2 (≈ 24.2 µg/mL) | 38 | 36 (≈ 14.2 µg/mL) | 74 (≈ 29.3 µg/mL) | 100 (≈ 39.6 µg/mL) | 2.7 | 0 |
